This is an account of results in article PMC9500072, “Topical application of an irreversible small molecule inhibitor of lysyl oxidases ameliorates skin scarring and fibrosis” (Nature Communications, 2022).

One experiment has as its target T1, Recombinant human LOXL1 (Homo sapiens, UniProt Q08397).
T1 construct: made in house
T1 sequence (Q08397 96-574): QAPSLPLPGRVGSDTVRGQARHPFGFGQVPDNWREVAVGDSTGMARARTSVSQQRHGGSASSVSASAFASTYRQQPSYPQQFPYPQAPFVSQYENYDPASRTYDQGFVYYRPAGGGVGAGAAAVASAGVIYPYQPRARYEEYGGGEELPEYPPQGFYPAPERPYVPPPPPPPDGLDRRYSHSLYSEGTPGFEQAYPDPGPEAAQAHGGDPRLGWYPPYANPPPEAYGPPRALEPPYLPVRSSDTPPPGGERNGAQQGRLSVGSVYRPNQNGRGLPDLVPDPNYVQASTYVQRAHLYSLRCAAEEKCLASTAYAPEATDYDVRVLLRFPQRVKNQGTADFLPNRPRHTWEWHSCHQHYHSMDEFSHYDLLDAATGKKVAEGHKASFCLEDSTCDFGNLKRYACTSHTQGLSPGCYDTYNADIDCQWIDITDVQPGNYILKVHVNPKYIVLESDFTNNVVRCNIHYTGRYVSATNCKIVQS
The experiment can be described thus: Amplex Red oxidation assay, LOXL1 inhibition. Conditions: for pIC50: 30 min pre-incubation, read-out: rh LOXL1 IC50; for IC50: read-out: Human Recombinant LOXL1 pIC50±SD (converted). In kind it is biochemical. Here is the method: The measurement of the enzymatic activity of all lysyl oxidase family members was based on the detection of hydrogen peroxide with an Amplex-Red oxidation assay, as previously described; miniaturized in 384 well formats, with the appropriate combination of substrate and assay buffer for each individual enzyme. After a 30 min pre-incubation of the enzyme at 37 °C with the test compound (or with different incubation times for the time-dependency assay), one volume of reaction mixture containing 120 μM Amplex Red (AR) (Life Technologies), 1.5 U/mL horseradish peroxidase (HRP) (Sigma-Aldrich) and the specific substrate was added to each sample. The relative fluorescence units (RFU) were then measured every 2.5 min for 30 min at 37 °C, excitation 565 nm and emission 590, on a BMG Clariostar Microplate Reader. All the substrates were used at concentrations corresponding to their Km towards the corresponding enzyme, or with a range of different concentrations for the substrate competition experiments.
Lysyl oxidases assay buffer contained 1.2 M urea, 50 mM sodium borate buffer, pH 8.2 and 100 µM β-aminoproprionitrile (BAPN, Sigma-Aldrich) was used for low control.
Recombinant human LOXL1 was expressed and purified from cDNA (GeneArt) and 10 mM putrescine was used as substrate. Recombinant human and mouse LOXL2 (R&D Systems) were challenged with 5 mM putrescine (Sigma-Aldrich) as the substrate. Rat and dog recombinant LOXL2 were amplified and purified in house from HEK-293 clones kindly provided by Dr. Fernando Rodríguez Pascual, Madrid University, and used in the same conditions as for the human form. 2 mM putrescine was used as the substrate for recombinant human LOXL3 (R&D Systems) and LOXL4 (Dr. Fernando Rodríguez Pascual, university of Madrid, Spain) assays.

In another experiment the target is T2, Human Recombinant SSAO (Homo sapiens, UniProt Q16853).
T2 sequence (Q16853 1-763): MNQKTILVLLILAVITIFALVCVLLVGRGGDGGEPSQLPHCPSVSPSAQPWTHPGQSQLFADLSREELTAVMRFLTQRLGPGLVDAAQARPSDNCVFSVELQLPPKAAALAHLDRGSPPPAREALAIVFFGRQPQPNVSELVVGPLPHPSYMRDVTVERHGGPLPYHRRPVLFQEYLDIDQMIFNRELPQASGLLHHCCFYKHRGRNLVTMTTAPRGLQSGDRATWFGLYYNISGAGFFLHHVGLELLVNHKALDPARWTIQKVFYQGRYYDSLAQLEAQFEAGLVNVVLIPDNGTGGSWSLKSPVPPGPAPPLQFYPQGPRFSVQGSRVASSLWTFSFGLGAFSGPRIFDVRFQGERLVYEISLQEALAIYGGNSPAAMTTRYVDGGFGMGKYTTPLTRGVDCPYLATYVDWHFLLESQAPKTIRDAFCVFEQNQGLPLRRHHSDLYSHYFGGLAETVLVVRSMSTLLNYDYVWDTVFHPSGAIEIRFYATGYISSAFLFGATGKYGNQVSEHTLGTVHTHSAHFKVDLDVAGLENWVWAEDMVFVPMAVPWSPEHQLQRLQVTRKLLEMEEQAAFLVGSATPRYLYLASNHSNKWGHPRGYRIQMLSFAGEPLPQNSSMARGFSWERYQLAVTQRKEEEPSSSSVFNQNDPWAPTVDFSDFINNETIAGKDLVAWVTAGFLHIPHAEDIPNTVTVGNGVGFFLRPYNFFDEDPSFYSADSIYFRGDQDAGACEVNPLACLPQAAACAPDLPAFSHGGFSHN
The experiment can be described thus: Compound oxidation assay (substrate propensity) by SSAO. In kind it is biochemical. The settings on record: for Oxidation by SSAO (hydrogen peroxide generated relative to DMSO): single concentration 30 µM. Here is the method:
For compound oxidation assays, the amount of hydrogen peroxide generated at a single concentration (30 µM) of compound relative to DMSO was measured.
Data are expressed as mean ± SEM. Subsequent statistical analysis was performed with unpaired two-sided Student’s t tests. *p < 0.05, **p < 0.01, ***p < 0.001and ****p < 0.0001. Source data are provided as a Source Data file.
This assay determines the substrate propensity of a compound relative to background (dimethyl sulfoxide only). Compound oxidation by rhSSAO was measured by fluorometric assay. Briefly, rhSSAO was incubated for 2 h at 37 °C in HEPES buffer before the addition of an equal volume of Amplex Red ([…]), horseradish peroxidase (4 U/ml), and test compound in the same buffer. The kinetics of the formation of resorufin was measured immediately using Optima reader (BMG Labtech GmbH, Ortenburg, Germany), at 37 °C.

pIC50: −log10 of the molar value. Where “and” joins values, the source holds several entries; their conditions need not be identical. Identical values can stand only once. Like-named read-outs stand apart in the source and are kept apart here.

For orientation: pIC50 means the IC50 on a negative log10 scale, so that one unit is a factor of ten. In the case of `N#CCCN` [BAPN, β-aminoproprionitrile, reference compound], the “Human Recombinant LOXL1 pIC50±SD” value at Recombinant human LOXL1 is listed as 5.6 ± 0.1. Moreover, the pIC50 at Recombinant human LOXL1 was 5.61. In addition, the “SSAO specificity (Fig 2F), oxidation, individual experiments” value on Human Recombinant SSAO (30) was 1.24 and 1.43 and 1.55 and 1.3 and 1.39; on Human Recombinant SSAO (60), 2.24 and 2.72 and 2.02 and 1.5 and 1.72; at Human Recombinant SSAO (90), 4.91 and 2.48 and 2.66 and 3.66.
One may read the inhibition as the relative decrease from the control value, in per cent. Take `NC/C=C(\F)CS(=O)(=O)c1ccccc1` [PXS-4787]: at Recombinant human LOXL1, the pIC50 was 5.52 and 5.49; the IC50 is 3.16 µM. Further, at Recombinant human LOXL1 (log conc -4.5229, read-out: Fig 2A inhibition (mean)), the inhibition at 30 µM was determined as 97.5%. Besides, the inhibition at 10 µM at Recombinant human LOXL1 (log conc -5, read-out: Fig 2A inhibition (mean)) was determined as 84.7%. Also, the inhibition at 3.333 µM on Recombinant human LOXL1 (log conc -5.4771, read-out: Fig 2A inhibition (mean)) was 56.4%. The inhibition at 1.111 µM at Recombinant human LOXL1 (log conc -5.9542, read-out: Fig 2A inhibition (mean)) worked out at 26.9%. Also, the inhibition at 0.3704 µM at Recombinant human LOXL1 (log conc -6.4313, read-out: Fig 2A inhibition (mean)) amounted to 13.6%. Also, the inhibition at 0.1235 µM on Recombinant human LOXL1 (log conc -6.9083, read-out: Fig 2A inhibition (mean)) is 6.04%. Further, the inhibition at 0.0412 µM at Recombinant human LOXL1 (log conc -7.3851, read-out: Fig 2A inhibition (mean)) was found to be 2.88%. Also, the inhibition at 0.0137 µM at Recombinant human LOXL1 (log conc -7.8633, read-out: Fig 2A inhibition (mean)) came to 3.87%. Also, the inhibition at 0.0046 µM on Recombinant human LOXL1 (log conc -8.3372, read-out: Fig 2A inhibition (mean)) amounted to 0.808%. For the same molecule, the inhibition at […] on Recombinant human LOXL1 (log conc -8.8239, read-out: Fig 2A inhibition (mean)) is -1.89%. On Recombinant human LOXL1 (log conc -9.301, read-out: Fig 2A inhibition (mean)), the inhibition at 0.0005 µM was 1.05%. For the same molecule, at Human Recombinant SSAO, the “Oxidation by SSAO (hydrogen peroxide generated relative to DMSO)” value came to 1.3.
Regarding `NC/C=C(\F)C(F)(F)S(=O)(=O)c1ccccc1` [PXS-6302], the pIC50 on Recombinant human LOXL1 is 5.47. For the same molecule, the IC50 at Recombinant human LOXL1 is 3.16 µM. Moreover, the “SSAO specificity (Fig 2F), oxidation, individual experiments” value on Human Recombinant SSAO (30) was 1.48 and 1.33 and 1.2 and 1.19 and 1.18 and 1.24 and 1.1 and 1.3 and 1.37 and 1.13 and 1.23; on Human Recombinant SSAO (60), 1.4 and 1.33 and 1.41; at Human Recombinant SSAO (90) it was 1.53 and 2.99 and 4.36. Also, the “Oxidation by SSAO (hydrogen peroxide generated relative to DMSO)” value at Human Recombinant SSAO is reported as 1.3.
